Source: US5767128A, “1,3-dihydro-2H-pyrrolo[2,3-b]pyridin-2-one compounds” (Adir et Compagnie, priority 1994, dated 1998)
Where two headings read alike, the source gives them in different places.

Experiments:
[1] = tested on: abdominal cramps induced in the rat by acetic acid; assay: Cramps induced with acetic acid (KOSTER test), analgesic activity, per os; format: in vivo, rat (male Wistar); conditions: po, read-out: Acetic Acid Writhing, % inhibition (% decrease in the number of cramps compared with the control animals)
Protocol: 1) Cramps induced with acetic acid
Male Wistar rats randomly divided into groups of 5 (weight 150±10 g) receive the test products per os 30 minutes before the intraperitoneal injection of 1 cm^3 of 1% acetic acid.
The number of cramps is counted during the 25 minutes which follow the injection.
(§1) The percentage activity was evaluated for each compound (% decrease in the number of cramps in the treated animals compared with the control animals).

[2] = tested on: cramps induced in the mouse by phenylbenzoquinone; assay: Cramps induced with phenylbenzoquinone (SIEGMUND test), analgesic activity, per os; format: in vivo, mouse (male CD-1); conditions: po, read-out: PBO Whrithing, % inhibition (% decrease in the number of cramps compared with the control animals)
Protocol: 2) Cramps induced with phenylbenzoquinone
Male CD-1 mice randomly divided into groups of 5 receive the test products per os 30 minutes before the intraperitoneal injection of 0.25 cm3 of a 0.01% solution of phenylbenzoquinone in a 95:5 mixture of water and ethanol.
The number of cramps is counted between the 5th and the 15th minute after the injection of phenylbenzoquinone.
as §1

[3] = rat, 50 mg/kg per os, 30 minutes before acetic acid, 25 minutes count
[4] = mouse, 50 mg/kg per os, 30 minutes before phenylbenzoquinone, count 5th to 15th minute

## CC(=O)c1cnc2c(c1)CC(=O)N2C [Example 13, 1,3-DIHYDRO-1-METHYL-5-ACETYL-2H-PYRROLO[2,3-b]PYRIDIN-2-ONE]
[1]; [3]
  inhibition at 50 mg/kg: 96%

## CN1C(=O)Cc2cc(CN3CCN(c4ccccc4)CC3)cnc21 [Example 46, 1,3-DIHYDRO-5-(4-PHENYLPIPERAZIN-1-YLMETHYL)-1-METHYL-2H-PYRROLO[2,3-b]PYRIDIN-2-ONE]
[2]; [4]
  inhibition at 50 mg/kg: 67%

## CN1C(=O)Cc2cc(C(=O)CN3CCN(c4ccccc4)CC3)cnc21 [Example 47, 1,3-DIHYDRO-5-[2-(4-PHENYLPIPERAZIN-1-YL)ACETYL)-1-METHYL-2H-PYRROLO[2,3-b]PYRIDIN-2-ONE]
[2]; [4]
  inhibition at 50 mg/kg: 90%

## Cn1c(=O)oc2cc(C(=O)c3ccccc3)cnc21 [Example 5, 3-METHYL-6-BENZOYLOXAZOLO[4,5-b]PYRIDIN-2(3-ONE]
[1]; [3]
  inhibition at 50 mg/kg: 85%
[2]; [4]
  inhibition at 50 mg/kg: 85%

## Cn1c(=O)oc2cc(C(=O)CN3CCN(c4ccccc4)CC3)cnc21 [Example 22, 3-METHYL-6-[2-(4-PHENYLPIPERAZIN-1-YL)ACETYL]OXAZOLO[4,5-b]PYRIDIN-2(3H)-ONE]
[1]; [3]
  inhibition at 50 mg/kg: 97%
[2]; [4]
  inhibition at 50 mg/kg: 53%

## CC(=O)Oc1ccccc1C(=O)O [Aspirin, reference compound]
[1]; Rattus norvegicus
  inhibition at 50 mg/kg: 56%
[2]; Mus musculus
  inhibition at 50 mg/kg: 62%

## Cn1c(=O)oc2cc(C(O)CN3CCN(c4ccccc4)CC3)cnc21 (stereo not drawn) [Example 24, 3-METHYL-6-[2-(4-PHENYLPIPERAZIN-1-YL)-1-HYDROXYETHYL]OXAZOLO[4,5-b]PYRIDIN-2(3H)-ONE]
[1]; [3]
  inhibition at 50 mg/kg: 86%
[2]; [4]
  inhibition at 50 mg/kg: 97%

## Cn1c(=O)oc2cc(CCCN3CCN(c4ccccc4)CC3)cnc21 [Example 20, 3-METHYL-6-[3-(4-PHENYLPIPERAZIN-1-YL)PROP-1-YL]OXAZOLO[4,5-b]PYRIDIN-2(3H)-ONE]
[2]; [4]
  inhibition at 50 mg/kg: 100%

## Cn1c(=O)oc2cc(CN3CCN(c4ccccc4)CC3)cnc21 [Example 16, 3-METHYL-6-[(4-PHENYLPIPERAZIN-1-YL)METHYL]OXAZOLO[4,5-b]PYRIDIN-2(3H)-ONE]
[1]; [3]
  inhibition at 50 mg/kg: 98%
[2]; [4]
  inhibition at 50 mg/kg: 57%

## O=C(c1ccccc1)c1cnc2[nH]c(=O)oc2c1 [Example 6, 6-BENZOYLOXAZOLO[4,5-b]PYRIDIN-2(3H)-ONE]
[1]; [3]
  inhibition at 50 mg/kg: 88%
